# Experimental data reported in patent publication US20230381275A1, “MUSCULAR FUNCTION IMPROVING AGENT FOR SKELETAL MUSCLE OF WHICH FUNCTION IS DEGRADED DUE TO AGING” (OSAKA UNIVERSITY, priority 2020, published 2023).
# Tests used:
# [1] = relative to SVVYGLR (SEQ ID NO.: 1); earlier work of the inventors; cited from earlier work
# [2] = system: aging-accelerated model mice; assay: Endurance evaluation test on treadmill (Example 5); assay type: in vivo; conditions: SV group
# Description: In this example, the training schedule and SV peptide administration concentration were changed from Example 4, and exercise evaluation (endurance evaluation) was conducted in aging-accelerated model mice when SV peptide was continuously administered. In addition, the cross-sectional area of muscle fibers (gastrocnemius (type I, type IIa, type IIb), extensor digitorum longus, and tibialis anterior muscles) were evaluated in mice that continued training and SV peptide administration until 51 weeks of age.
# Aging-accelerated model mice were trained on a treadmill (MK-680; Muromachi Kikai Co., Ltd.) (18 m/min×90 min) and subsequent SV peptide administration was performed according to the schedule in the following table. 30 weeks of age and thereafter, training was performed continuously from Monday to Friday of each week. SV peptide was added to PBS to adjust to a concentration of 1 μg/ml for an injection formulation and localized to the bilateral leg muscles of each mouse anesthetized by inhalation with sevoflurane immediately after training on Tuesday and Friday (SV group; twice weekly administration). Exercise evaluations were performed every other Friday.
# Exercise evaluation was performed by endurance assessment, in which the belt speed on the treadmill was increased stepwise at regular intervals. The elapsed time and belt speed increase used for the endurance evaluation test were the same as in Example 4. In the PBS group as a control group, PBS was injected into the bilateral leg muscles instead of SV peptide after training on the treadmill in the same manner as in the SV group.
# The results of the endurance evaluation test are shown in FIG. 7 as a graph showing the difference between the mean running distance on the reference date (30 weeks of age) and the mean running distance in each test.
# The results of the endurance evaluation test are also shown in FIG. 8 as a graph showing the difference between the mean speed on the reference day and the mean speed on each test day. The mean speed for each group was calculated as the mean of the highest speeds reached by each mouse in each group (mean speeds were calculated in the same manner hereinafter).
# [3] = system: aging-accelerated model mice (SAMP10); assay: Mean cross-sectional area of muscle fibers, HE staining, 40-week-old mice (Example 3); assay type: in vivo; conditions: 40-week-old SAMP10 mice; treadmill training plus SV peptide 20 ng/ml; vs PBS control; FIG. 3B
# Description: In this example, we evaluated muscle fibers in aging-accelerated model mice after continuous administration of SV peptide.
# Aging-accelerated model mice (SAMP10 21 weeks old) were trained on a treadmill (MK-680; Muromachi Kikai Co., Ltd.) (18 m/min×90 min) and subsequent SV peptide administration was performed according to the same schedule as in Example 1. After 36 weeks of age, training on the treadmill and subsequent SV peptide administration were conducted under the same conditions as at 35 weeks of age, and continued until the aging-accelerated model mice reached 40 weeks of age. In the control group, after training under the same conditions as the experimental group, PBS was injected into the bilateral lower limb muscles instead of SV peptide.
# The gastrocnemius and soleus muscles of the lower limbs were then removed from 40-week-old aging-accelerated model mice, sections were prepared according to the standard method, and HE staining was performed.
# [4] = system: fibroblasts; conditions: see Patent Document 1; cited from earlier work
# [5] = system: aging-accelerated model mice (SAMP10); assay: Exercise evaluation on treadmill, mean workload (Example 4); assay type: in vivo; conditions: SV-treated group (training and SV peptide) relative to PBS group; FIG. 6
# Description: Aging-accelerated model mice (SAMP10 28 weeks old) were trained on a treadmill (MK-680; Muromachi Kikai Co., Ltd.) (18 m/min×90 min) and subsequent SV peptide administration was performed according to the schedule in the following table. After 30 weeks of age, training was performed continuously from Monday to Friday of each week. SV peptides were added to PBS to adjust to a concentration of 1 μg/ml or 20 ng/ml for injection formulation. Localized injections were made into the bilateral leg muscles of each mouse anesthetized by inhalation with sevoflurane immediately after training on Tuesday and Friday (SV group). Exercise evaluations were performed after SV peptide localization on Friday.
# Exercise evaluations were conducted for endurance evaluation, in which the belt speed on the treadmill was increased incrementally at regular intervals, and for slope-up evaluation, in which the belt incline was increased incrementally at regular intervals. […]
# The mean workload was calculated as the mean value of workload calculated by multiplying body weight, running time, slope (grade), running speed, and gravitational acceleration g(9.8 m/s^2) for each mouse in each group by […].
# [6] = system: animal models of injured skeletal muscle; conditions: local administration, Non-Patent Document 7, Patent Document 5; cited from earlier work
# [7] = system: aging-accelerated model mice (SAMP10); assay: Number of collisions during treadmill running, weekly test (Example 1); assay type: in vivo; conditions: after 30 weeks of age (tested to 35 weeks), SV peptide 20 ng/ml injected into bilateral lower limb muscles after treadmill training, vs PBS control group, FIG. 1
# Description: In this example, a peptide consisting of the amino acid sequence of SVVYGLR (SEQ ID No.: 1) (SV peptide) was administered to aging-accelerated model mice, and their effects on restoring muscle function were confirmed.
# SV peptide was synthesized by the Fmoc method using a multi-species solid-phase automated peptide synthesizer (PSSM-8; Shimadzu Corp.) SV peptide was added to PBS and adjusted to 20 ng/ml to prepare an injection formulation.
# Aging-accelerated model mice (SAMP10 21 weeks old) were used to perform training on a treadmill (MK-680; Muromachi Kikai Co., Ltd.) and subsequent SV peptide administration according to the schedule in the following table. […]
# Once a week, the mice were tested on a treadmill to measure the number of collisions. After SV peptide injection, the mice have trained on the treadmill again (18 m/min×90 min), and the number of times the mice collided with the treadmill wall due to being unable to run at a speed equal to or faster than that of the belt was measured during treadmill training. […] In the control group, after training on the treadmill in the same manner as the experimental group, PBS was injected into the bilateral lower limb muscles instead of SV peptide, and the number of collisions was measured once a week.
substance,measurement,setting,value
"SVVYGLR [SV peptide, peptide consisting of 7 amino acids (SVVYGLR]",angiogenic effect,[1],promoting angiogenesis
same,decrease in the mean running distance during the test period,"[2]; 1 μg/ml twice weekly plus training, relative to the PBS group, FIG. 7",able to suppress the decrease in the mean running distance
same,decrease in mean speed during the test period,"[2]; 1 μg/ml twice weekly plus training, relative to the PBS group, FIG. 8",able to suppress the decrease in mean speed
same,mean speed (mean of highest speeds reached) relative to reference day,"[2]; 1 μg/ml twice weekly plus training, test from 31 to 39 weeks of age, FIG. 8",increased continuously
same,mean running distance relative to the reference date (30 weeks of age),"[2]; SV peptide 1 μg/ml twice weekly plus training, tests at 31 to 41 weeks of age, FIG. 7",increased from the reference date
same,mean cross-sectional area of fast muscle fibers (gastrocnemius muscle),[3],significantly higher than in the control group
same,mean cross-sectional area of slow muscle fibers (soleus muscle),[3],significantly higher than in the control group
same,type III collagen production-promoting effect / type III collagen secretion,[4],promoting
same,mean workload,[5],higher workload relative to the PBS group
same,diameter of regenerated muscle fibers,[6],significantly higher
same,muscle tissue regeneration,[6],promotes muscle tissue regeneration
same,number of collisions during treadmill running,[7],significant suppression of the increase in the number of collisions compared to the control group
